Experimental data: the supplement of paper PMC8671470

The compounds below were run on THP-1 (assay: cell viability (% survival relative to DMSO control, bortezomib = 0%); higher = less cytotoxic). Details: 1 nM; 72 h.
In short: (§1)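 Percent survival figures are means of duplicate wells. They were obtained by CellTiter-Glo luminescence after 10 AML and 5 CML cell lines spent 72 h at 37 °C with 5% CO2 in 384-well plates with compounds at 1, 10, 100, 1000 or 10000 nM. Vehicle was set to 100% and a 10 µM positive control to 0%.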

Structure (SMILES) | cell viability [%]
CC(=O)N1CCN(c2ccc(OC[C@@H]3CO[C@@](Cn4ccnc4)(c4ccc(Cl)cc4Cl)O3)cc2)CC1 (racemic) [Ketoconazole] | 105
CCC(CC#N)OC(=O)N[C@@H](C)c1cccc(NC(=O)Nc2ccc(-c3cnco3)c(OC)c2)c1 (stereo in doubt) [AVN-944] | 101
OC[C@H]1OC(O)C[C@@H](O)[C@@H]1O (some centres undefined) [2-deoxyglucose] | 92
O=C(C(=O)c1ccc(Br)cc1)c1ccc(Br)cc1 [4,4'-Dibromobenzil] | 98.2
NS(=O)(=O)c1ccc(NC(=O)Cc2ccccc2)cc1 [4-(2-Phenylacetamido)Benzenesulfonamide] | 89.8
NCc1ccc(S(N)(=O)=O)cc1 [4-Homosulfanilamide] | 98.5
Oc1ncc(F)c(O)n1 [5-fluorouracil] | 101
NCc1ccc(-c2cccnc2)s1 [(5-Pyrid-3-YLTHIEN-2-YL)METHYLAMINE] | 109
CC(=O)N[C@@H](CS)C(=O)O [Acetylcysteine] | 103
CCCCC/C=C\C/C=C\C/C=C\C/C=C\CCCC(=O)C(F)(F)F [Arachidonyl trifluoromethyl ketone] | 95.2
O=[As]O[As]=O (centres undefined) [Arsenic trioxide] | 93.9

Same assay, conditions: 10 nM; 72 h

Structure (SMILES) | cell viability [%]
CC(=O)N1CCN(c2ccc(OC[C@@H]3CO[C@@](Cn4ccnc4)(c4ccc(Cl)cc4Cl)O3)cc2)CC1 (racemic) [Ketoconazole] | 95.9
CCC(CC#N)OC(=O)N[C@@H](C)c1cccc(NC(=O)Nc2ccc(-c3cnco3)c(OC)c2)c1 (stereo in doubt) [AVN-944] | 99.7
OC[C@H]1OC(O)C[C@@H](O)[C@@H]1O (some centres undefined) [2-deoxyglucose] | 96.1
O=C(C(=O)c1ccc(Br)cc1)c1ccc(Br)cc1 [4,4'-Dibromobenzil] | 103
NS(=O)(=O)c1ccc(NC(=O)Cc2ccccc2)cc1 [4-(2-Phenylacetamido)Benzenesulfonamide] | 105
NCc1ccc(S(N)(=O)=O)cc1 [4-Homosulfanilamide] | 92.5
Oc1ncc(F)c(O)n1 [5-fluorouracil] | 111
NCc1ccc(-c2cccnc2)s1 [(5-Pyrid-3-YLTHIEN-2-YL)METHYLAMINE] | 111
CC(=O)N[C@@H](CS)C(=O)O [Acetylcysteine] | 98.8
CCCCC/C=C\C/C=C\C/C=C\C/C=C\CCCC(=O)C(F)(F)F [Arachidonyl trifluoromethyl ketone] | 103
O=[As]O[As]=O (centres undefined) [Arsenic trioxide] | 96.1

Same assay, conditions: 100 nM; 72 h

Structure (SMILES) | cell viability [%]
CC(=O)N1CCN(c2ccc(OC[C@@H]3CO[C@@](Cn4ccnc4)(c4ccc(Cl)cc4Cl)O3)cc2)CC1 (racemic) [Ketoconazole] | 97.4
CCC(CC#N)OC(=O)N[C@@H](C)c1cccc(NC(=O)Nc2ccc(-c3cnco3)c(OC)c2)c1 (stereo in doubt) [AVN-944] | 101
OC[C@H]1OC(O)C[C@@H](O)[C@@H]1O (some centres undefined) [2-deoxyglucose] | 105
O=C(C(=O)c1ccc(Br)cc1)c1ccc(Br)cc1 [4,4'-Dibromobenzil] | 100
NS(=O)(=O)c1ccc(NC(=O)Cc2ccccc2)cc1 [4-(2-Phenylacetamido)Benzenesulfonamide] | 109
NCc1ccc(S(N)(=O)=O)cc1 [4-Homosulfanilamide] | 105
Oc1ncc(F)c(O)n1 [5-fluorouracil] | 99.3
NCc1ccc(-c2cccnc2)s1 [(5-Pyrid-3-YLTHIEN-2-YL)METHYLAMINE] | 99.6
CC(=O)N[C@@H](CS)C(=O)O [Acetylcysteine] | 101
CCCCC/C=C\C/C=C\C/C=C\C/C=C\CCCC(=O)C(F)(F)F [Arachidonyl trifluoromethyl ketone] | 94.1
O=[As]O[As]=O (centres undefined) [Arsenic trioxide] | 106

Same assay, conditions: 1000 nM; 72 h

Structure (SMILES) | cell viability [%]
CC(=O)N1CCN(c2ccc(OC[C@@H]3CO[C@@](Cn4ccnc4)(c4ccc(Cl)cc4Cl)O3)cc2)CC1 (racemic) [Ketoconazole] | 104
CCC(CC#N)OC(=O)N[C@@H](C)c1cccc(NC(=O)Nc2ccc(-c3cnco3)c(OC)c2)c1 (stereo in doubt) [AVN-944] | 65.3
OC[C@H]1OC(O)C[C@@H](O)[C@@H]1O (some centres undefined) [2-deoxyglucose] | 86.9
O=C(C(=O)c1ccc(Br)cc1)c1ccc(Br)cc1 [4,4'-Dibromobenzil] | 95
NS(=O)(=O)c1ccc(NC(=O)Cc2ccccc2)cc1 [4-(2-Phenylacetamido)Benzenesulfonamide] | 99
NCc1ccc(S(N)(=O)=O)cc1 [4-Homosulfanilamide] | 96.2
Oc1ncc(F)c(O)n1 [5-fluorouracil] | 97.8
NCc1ccc(-c2cccnc2)s1 [(5-Pyrid-3-YLTHIEN-2-YL)METHYLAMINE] | 104
CC(=O)N[C@@H](CS)C(=O)O [Acetylcysteine] | 100
CCCCC/C=C\C/C=C\C/C=C\C/C=C\CCCC(=O)C(F)(F)F [Arachidonyl trifluoromethyl ketone] | 87.5
O=[As]O[As]=O (centres undefined) [Arsenic trioxide] | 92.4

Same assay, conditions: 10000 nM; 72 h

Structure (SMILES) | cell viability [%]
CC(=O)N1CCN(c2ccc(OC[C@@H]3CO[C@@](Cn4ccnc4)(c4ccc(Cl)cc4Cl)O3)cc2)CC1 (racemic) [Ketoconazole] | 91.1
CCC(CC#N)OC(=O)N[C@@H](C)c1cccc(NC(=O)Nc2ccc(-c3cnco3)c(OC)c2)c1 (stereo in doubt) [AVN-944] | 43.1
OC[C@H]1OC(O)C[C@@H](O)[C@@H]1O (some centres undefined) [2-deoxyglucose] | 100
O=C(C(=O)c1ccc(Br)cc1)c1ccc(Br)cc1 [4,4'-Dibromobenzil] | 97.6
NS(=O)(=O)c1ccc(NC(=O)Cc2ccccc2)cc1 [4-(2-Phenylacetamido)Benzenesulfonamide] | 87.8
NCc1ccc(S(N)(=O)=O)cc1 [4-Homosulfanilamide] | 99.5
Oc1ncc(F)c(O)n1 [5-fluorouracil] | 63.3
NCc1ccc(-c2cccnc2)s1 [(5-Pyrid-3-YLTHIEN-2-YL)METHYLAMINE] | 93
CC(=O)N[C@@H](CS)C(=O)O [Acetylcysteine] | 102
CCCCC/C=C\C/C=C\C/C=C\C/C=C\CCCC(=O)C(F)(F)F [Arachidonyl trifluoromethyl ketone] | 61.1
O=[As]O[As]=O (centres undefined) [Arsenic trioxide] | 82.2

The compounds below were run on MV4-11 in the same assay as above. Details: 1 nM; 72 h.
In short: as §1

Structure (SMILES) | cell viability [%]
CC(=O)N1CCN(c2ccc(OC[C@@H]3CO[C@@](Cn4ccnc4)(c4ccc(Cl)cc4Cl)O3)cc2)CC1 (racemic) [Ketoconazole] | 92.5
CCC(CC#N)OC(=O)N[C@@H](C)c1cccc(NC(=O)Nc2ccc(-c3cnco3)c(OC)c2)c1 (stereo in doubt) [AVN-944] | 92.1
OC[C@H]1OC(O)C[C@@H](O)[C@@H]1O (some centres undefined) [2-deoxyglucose] | 102
O=C(C(=O)c1ccc(Br)cc1)c1ccc(Br)cc1 [4,4'-Dibromobenzil] | 101
NS(=O)(=O)c1ccc(NC(=O)Cc2ccccc2)cc1 [4-(2-Phenylacetamido)Benzenesulfonamide] | 108
NCc1ccc(S(N)(=O)=O)cc1 [4-Homosulfanilamide] | 93.9
Oc1ncc(F)c(O)n1 [5-fluorouracil] | 96
NCc1ccc(-c2cccnc2)s1 [(5-Pyrid-3-YLTHIEN-2-YL)METHYLAMINE] | 91.6
CC(=O)N[C@@H](CS)C(=O)O [Acetylcysteine] | 112
